Source: ChEMBL document CHEMBL2390945, “Synthesis and characterization of 123I-CMICE-013: a potential SPECT myocardial perfusion imaging agent” (Bioorg Med Chem, 2013)

Tests used:
Blood [1] = test: Biodistribution in Sprague-Dawley rat blood at 24 hrs by gamma counting analysis; format: ADME, organism-based; details: in vivo
Heart [2] = test: Biodistribution in Sprague-Dawley rat heart at 24 hrs by gamma counting analysis; format: ADME, organism-based; details: in vivo
Muscle tissue = test: Biodistribution in Sprague-Dawley rat muscle at 24 hrs by gamma counting analysis; format: ADME, organism-based; details: in vivo
Brain [3] = test: Biodistribution in Sprague-Dawley rat brain at 24 hrs by gamma counting analysis; format: ADME, organism-based; details: in vivo
Liver [4] = test: Biodistribution in Sprague-Dawley rat liver at 24 hrs by gamma counting analysis; format: ADME, organism-based; details: in vivo
Kidney = test: Biodistribution in Sprague-Dawley rat kidney at 24 hrs by gamma counting analysis; format: ADME, organism-based; details: in vivo
Lung [5] = test: Biodistribution in Sprague-Dawley rat lung at 24 hrs by gamma counting analysis; format: ADME, organism-based; details: in vivo
Spleen = test: Biodistribution in Sprague-Dawley rat spleen at 24 hrs by gamma counting analysis; format: ADME, organism-based; details: in vivo
Thyroid gland [6] = test: Biodistribution in Sprague-Dawley rat thyroid assessed per organ at 24 hrs by gamma counting analysis; format: ADME, organism-based; details: in vivo
Thyroid gland [7] = test: Biodistribution in Sprague-Dawley rat thyroid assessed per organ at 2 hrs by gamma counting analysis; format: ADME, organism-based; details: in vivo
Brain [8] = test: Biodistribution in Sprague-Dawley rat brain at 2 hrs by gamma counting analysis; format: ADME, organism-based; details: in vivo
Lung [9] = test: Biodistribution in Sprague-Dawley rat lung at 2 hrs by gamma counting analysis; format: ADME, organism-based; details: in vivo
[10] = Ratio of drug level in heart to blood in Sprague-Dawley rat measured at 2 hrs; format: ADME
Blood [11] = test: Biodistribution in Sprague-Dawley rat blood at 2 hrs by gamma counting analysis; format: ADME, organism-based; details: in vivo
Liver [12] = test: Biodistribution in Sprague-Dawley rat liver at 2 hrs by gamma counting analysis; format: ADME, organism-based; details: in vivo
Heart [13] = test: Biodistribution in Sprague-Dawley rat heart at 2 hrs by gamma counting analysis; format: ADME, organism-based; details: in vivo
[14] = Ratio of drug level in heart to lung in Sprague-Dawley rat measured at 2 hrs; details: in vivo
[15] = Ratio of drug level in heart to liver in Sprague-Dawley rat measured at 2 hrs; details: in vivo

SMILES: COc1cc2c(cc1OC)[C@@H]1C(=O)c3ccc4c(c3O[C@@H]1CO2)C[C@H](/C(C)=C\[125I])O4
- Drug uptake (Blood [1]): 0.06 % ID/g
- Drug uptake (Heart [2]): Active
- Drug uptake (Muscle tissue): Active
- Drug uptake (Brain [3]): Active
- Drug uptake (Liver [4]): Active
- Drug uptake (Kidney): Active
- Drug uptake (Lung [5]): Active
- Drug uptake (Spleen): Active
- Drug uptake (Thyroid gland [6]): 3.78 %ID
- Drug uptake (Thyroid gland [7]): 0.34 %ID
- Drug uptake (Brain [8]): 0.34 %Idose/kg
- Drug uptake (Lung [9]): 0.33 %Idose/kg
- Kp at 2 h [10]: 22.4
- Drug uptake (Blood [11]): 0.14 %Idose/kg
- Drug uptake (Liver [12]): 1.17 %Idose/kg
- Drug uptake (Heart [13]): 2.96 %Idose/kg
- Ratio [14]: 9.32
- Ratio [15]: 2.57
